Test results: US20230218496A1, “IONIC LIQUID AS AN ANTIPERSPIRANT” (Novigo GmbH, priority 2020, published 2023)

Tests used:
[1] = tested on: Corynebacterium xerosis DSM 20743, ATCC 373; test: Minimum inhibitory concentration, dilution series in suspension; assay type: cell-based; settings: 1-hexylpyridinium chloride in water
Text: (§1) Corynebacteria and germs of the genus Staphylococcus epidermidis are mainly found in the underarm area. Therefore, the bacteriostatic effect of a composition comprising 1-hexylpyridinium chloride in water was investigated in vitro on the relevant test microbes. The test microbes used were Staphylococcus epidermidis with the identifier DSM 20044, ATCC 14990, Corynebacterium xerosis with the identification DSM 20743, ATCC 373 and Kocuria rhizophila of the type Micrococcus with the identifier DSM 11926. Using a series of dilutions of the substance to be tested, the minimum inhibitory concentration was determined at which growth of the bacteria in suspension could no longer be detected. […] Thus, an antimicrobial effect on odor-forming microorganisms and thus a deodorizing effect of the active ingredient 1-hexylpyridinium chloride is also shown in vitro.

[2] = tested on: Staphylococcus epidermidis DSM 20044, ATCC 14990; test: as above; assay type: cell-based; settings: 1-hexylpyridinium chloride in water
Text: as §1

[3] = In vitro evidence on toxicity, skin corrosion, mutagenicity, carcinogenicity
[4] = Antiperspirant effect and side effects over the active ingredient concentration range; assay type: in vivo
[5] = Skin compatibility, epicutaneous test (occlusive patch); assay type: in vivo, human; settings: 5% and 7.5% of the active ingredient
Text: The aim of examining skin compatibility, the so-called epicutaneous test, is to rule out primary skin irritation caused by a test product and/or existing sensitization to the test product. The test substances are applied occlusively to the skin at suitable concentrations. The epicutaneous contact with the test product is limited in terms of location and time and is intensified by occlusion conditions, so that the absorption of the test substances is favored. The skin was examined after 24, 48 and 72 hours. The occlusion conditions are used to allow a potential allergen to more easily penetrate through the stratum corneum to reach the effector cells that could elicit a local immune system response. A positive response occurs when a threshold level of irritation/sensitization is exceeded. A positive reaction to a correctly applied epicutaneous test is considered evidence of primary irritation by the test substance, but not necessarily evidence of sensitization. For the test, 20 mg or 20 μL of the test product is applied undiluted to a ready-made plaster, which is applied and fixed to the clinically healthy skin of the upper back. The test plaster is removed after an exposure time of 24 hours and for the first time assessed dermatologically and allergologically. […] The test reaction was evaluated for the first time 30 minutes after removal of the test plaster under standardized lighting. […]

[6] = target: BSA (bovine serum albumin) (Bos taurus, UniProt P02769); test: Protein precipitation in vitro, BSA gelling experiments; settings: composition in water
Chain of BSA (bovine serum albumin) (P02769 25-607): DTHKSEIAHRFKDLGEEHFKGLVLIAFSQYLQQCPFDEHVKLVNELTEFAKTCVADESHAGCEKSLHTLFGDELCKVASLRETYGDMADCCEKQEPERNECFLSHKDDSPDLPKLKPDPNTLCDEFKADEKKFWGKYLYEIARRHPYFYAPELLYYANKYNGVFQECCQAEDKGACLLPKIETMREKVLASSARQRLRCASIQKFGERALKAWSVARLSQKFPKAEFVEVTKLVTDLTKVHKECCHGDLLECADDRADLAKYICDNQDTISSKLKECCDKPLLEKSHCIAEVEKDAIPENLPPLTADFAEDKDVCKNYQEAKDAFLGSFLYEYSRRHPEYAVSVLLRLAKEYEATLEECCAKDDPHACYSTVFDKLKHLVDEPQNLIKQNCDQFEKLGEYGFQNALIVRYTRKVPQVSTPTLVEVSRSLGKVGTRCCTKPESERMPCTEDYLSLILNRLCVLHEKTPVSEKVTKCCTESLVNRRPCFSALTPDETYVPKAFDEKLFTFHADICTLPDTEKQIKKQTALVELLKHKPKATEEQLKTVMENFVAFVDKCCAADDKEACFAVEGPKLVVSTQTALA
Text: Therefore, the ability of a composition comprising 1-hexylpyridinium chloride in water for protein precipitation was investigated in vitro using BSA (bovine serum albumin) gelling experiments. An aqueous solution of aluminum chloride hexahydrate was used as a positive control.

in vivo skin compatibility [5]: Good in vivo skin compatibility
gelation of BSA [6]: leads to gelation of BSA
SMILES: CCCCCC[n+]1ccccc1.[Cl-] [1-hexylpyridinium chloride]
minimum inhibitory concentration (inhibition of bacterial growth), final preparation concentration [1]: 0.2%
minimum inhibitory concentration (bacteriostatic effect) [2]: 0.4%
mutagenicity or carcinogenicity [3]: no mutagenicity or carcinogenicity
skin corrosion [3]: no skin corrosion
toxicity [3]: low toxicity
serious side effects ([4]; active ingredient concentration 0.5% by weight up to 25% by weight): serious side effects were ruled out
antiperspirant effect ([4]; active ingredient concentration 0.5% by weight up to 30% by weight): good antiperspirant effect
